The assay concerns Human prostatic cancer cell PC3. The assay can be described thus: In vitro cytotoxicity / biocompatibility test, MTS assay. The format is cell-based. Particulars: 5 μM initial drug concentration in the media, 48 hours. The protocol: Human prostatic cancer cell PC3 were used to test the biocompatibility and cytotoxicity of FU loaded PCL nanofibers. Human prostatic cancer cell derived from metastatic site (bone) was purchased from ATCC, USA. 57 ml of fetal bovine serum (USA origin purchased from Sigma Aldrich), 7 ml of Penicillin-Streptomycin (Life Technologies) and 6 ml of HEPES (Life Technologies) was added to 500 ml RPMI-1640 medium (Fisher Scientific). This media is called R+ media. 96 well plate were used to grow PC3 cells (sterile and flat bottom type purchased from fisher scientific). 100 μL of PC3 cells at 8×10^4 cells/ml were added on each wells of 96 well plate for all tests. PC3 cells were incubated at 37° C. in a humidified 5% CO2 atmosphere for 24 hours before performing any test. […]
The cytotoxicity of NFs set A and D was assessed. […]
96 well plates were incubated at 37° C. in a humidified, 5% CO2 atmosphere for 48 hours to give sufficient time for the fluorouracil to inhibit essential biosynthetic process of the PC3 cells and thus cause cell death. […] Well plates were kept again in CO2 incubator for 3 hours and then their absorbance were measured at 490 nm using UV-Vis spectrometer. Absorbance of cells with different concentration of drug was compared with the absorbance of PC3 cells with no drug to determine the cell viability. […]

Compound `O=c1[nH]cc(F)c(=O)[nH]1` [pristine FU, 5-Fluorouracil] registered an alive cells of 43%.

The values are drawn from patent US20180000744A1, “NANOENCAPSULATED COMPOSITIONS” (Georgia Southern Research and Service Foundation, Inc., priority 2016, published 2018).
